Drawing on US8211885B2, “Cyclic indole-3-carboxamides, their preparation and their use as pharmaceuticals” (Sanofi-Aventis, priority 2008, dated 2012), this text covers IC50 for eight molecules.

pIC50: −log10 of the molar value.

For one assay, the target named is T1, Recombinant human renin (Homo sapiens, UniProt P00797).
T1 construct: purchased Cayman 10006217
T1 sequence (P00797 67-406): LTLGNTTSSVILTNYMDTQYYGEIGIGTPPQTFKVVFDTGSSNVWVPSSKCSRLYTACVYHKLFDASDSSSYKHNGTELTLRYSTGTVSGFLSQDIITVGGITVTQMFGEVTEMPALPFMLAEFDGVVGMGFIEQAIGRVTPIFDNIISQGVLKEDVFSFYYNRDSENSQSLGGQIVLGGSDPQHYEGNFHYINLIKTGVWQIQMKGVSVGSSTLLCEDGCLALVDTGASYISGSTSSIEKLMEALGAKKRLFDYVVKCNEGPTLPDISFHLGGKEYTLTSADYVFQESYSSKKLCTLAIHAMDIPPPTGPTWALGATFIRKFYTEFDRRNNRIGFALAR
The assay can be described thus: Inhibition of renin (fluorogenic peptide substrate). It is filed as biochemical.
Conditions: not given
The method, then:
Recombinant human renin (Cayman, no. 10006217) at a concentration of 5 nM was incubated with the test compounds at various concentrations and the synthetic substrate Dabcyl-γ-Abu-[…]EDANS (Bachem, no. M-2050; Dabcyl means the 4-(4-dimethylamino-phenylazo)-benzoyl group and EDANS means the amide with 5-[(2-aminoethyl)amino]-naphthalene-1-sulfonic acid) at a concentration of 10 μM for 2 h at room temperature in 0.05 M Tris buffer (pH 8) containing 0.1 M NaCl, 2.5 mM EDTA and 1.25 mg/ml bovine serum albumin. The increase in fluorescence, which is due to fluorescence resonance energy transfer, was recorded at an excitation wavelength of 330 nm and an emission wavelength of 485 nm in a microplate spectrofluorometer. Inhibitory concentrations IC50 were calculated from the percentage of inhibition of renin activity as a function of the concentration of the test compound.
For the molecule `CN(c1ccccc1)c1c(C(=O)N2CCNCC2)c2ccccc2n1-c1ccccc1` [Example 3, [2-(Methyl-phenyl-amino)-1-phenyl-1H-indol-3-yl]-piperazin-1-yl-methanone], the pIC50 was 5.49.

Staying with this assay, now noted: renin 5 nM, substrate Dabcyl-γ-Abu-[…]-EDANS 10 μM, 2 h room temperature, Tris buffer pH 8; compounds tested as the obtained salt; read-out: IC50 values for inhibition of renin (fluorogenic peptide substrate).
For `O=C(c1c(Oc2ccccc2)n(-c2ccccc2)c2ccccc12)N1CCCNCC1` [Example 5, Perhydro-1,4-diazepin-1-yl-(2-phenoxy-1-phenyl-1H-indol-3-yl)-methanone], the pIC50 is 5.47. The same measure, in the same setting: next, `Cc1ccc(F)cc1Oc1c(C(=O)N2CCNCC2)c2ccccc2n1C1C=CCCC1` (centres unmarked) [Example 22, [1-Cyclohex-2-enyl-2-(5-fluoro-2-methyl-phenoxy)-1H-indol-3-yl]-piperazin-1-yl-methanone]: 8.14. Same read-out and setting: for `O=C(c1c(Oc2ccccc2)n(-c2ccccc2)c2ccccc12)N1CCNC(CO)C1` (centres unmarked) [Example 24, (3-Hydroxymethyl-piperazin-1-yl)-(2-phenoxy-1-phenyl-1H-indol-3-yl)-methanone] the value was 5.80.

On to `Cc1ccc(F)cc1Oc1c(C(=O)N2CCNCC2)c2ccc(OCC(=O)O)cc2n1-c1ccccc1` [Example 30, [2-(5-Fluoro-2-methyl-phenoxy)-1-phenyl-3-(piperazine-1-carbonyl)-1H-indol-6-yloxy]-acetic acid], for which the pIC50 is 6.89.

As for `Cc1ccccc1Sc1c(C(=O)N2CCNCC2)c2ccccc2n1-c1ccccc1` [Example 108], the pIC50 was 7.15.

For the molecule `Cc1ccccc1Cc1c(C(=O)N2CCNCC2)c2ccccc2n1-c1ccsc1` [Example 113], the pIC50 is 6.64. With `O=C(c1c(Oc2ccccc2)n(-c2ccccc2)c2ccccc12)N1CCNCC1Cc1ccccc1` (centres unmarked) [Example 126], the pIC50 is 5.35.
